The text below walks through data of US4474794A, “N-Thiazolylmethylthioalkyl-N^1 -alkenyl (or alkynyl)guanidines and related compounds” (Eli Lilly and Company, priority 1982, dated 1984).

Molecules are shown by their SMILES.

One assay has as its system H2 -receptor. The conditions noted are these: said in U.S. Pat. No. 4,203,909; cited from earlier work.
A further assay deals with H2 receptor. As to conditions: prior art; cited from earlier work.
The subject of a further assay is acid secretion. In words: in vivo antisecretory action on histamine-stimulated acid secretion in gastric fistula dogs. As for the experimental part: An in vivo assay for antisecretory action of drugs on acid secretion utilizes gastric fistula dogs with vagally innervated gastric fistula and vagally denervated Heidenhain pouch. In this procedure, a steady-state gastric secretion is produced by the iv infusion of histamine. The antisecretory drugs under test are given either intravenously by infusion over a 30 minute period or orally 75 min. prior to collection of gastric secretion from the fistula.

A further assay has as its target T1, H2 -receptors (Rattus norvegicus, UniProt P25102).
T1 construct: uterine horns removed therefrom and suspended at ambient temperatures in isolated organ baths; from tissue; host or cells: isolated uterine horns of estrone-treated female albino rats
In words: H2-receptor blocking activity, histamine relaxation of KCl-contracted isolated rat uterine horns. It is filed as cell-based. As to conditions: for Kb: antagonist 10^-5 molar for 30 minutes, rat uterine strips, histamine dose-response shift, read-out: pA2 (-log KB) (converted). As to the method:
The following assay for H2 -receptor blocking activity was employed. Female albino rats were treated with estrone 24 hours prior to the initiation of the experiment. The rats were sacrificed and the uterine horns removed therefrom and suspended at ambient temperatures in isolated organ baths containing De Jalon's solution. After equilibration, the uterine strips are exposed to 50 millimole aqueous potassium chloride, which produces a sustained contraction. When the uterus is so contracted, histamine produces a dose-dependent H2 -receptor-mediated relaxation. A control dose-response curve to histamine is constructed on each tissue. Following thorough washout of the histamine after obtaining the control dose-response curve, each antagonist (the compounds of this invention) is added for 30 minutes at a concentration of 10^-5 molar. The uterine strips are then contracted with aqueous potassium chloride in the presence of the antagonist and a second dose-response curve to histamine obtained. In the presence of a competitive antagonist, the dose-response curve to histamine is shifted in parallel to the right with no depression of the maximum relative to the control curve. The dose ratio (DR) is calculated for each concentration of antagonist by dividing the ED50 of histamine in the presence of the competitive antagonist by the control ED50 for histamine. The dissociation constant (KB ) of the antagonist is calculated from the dose-ratios by the following equation: […]
Cimetidine is included as an internal standard.

Usually ED50 stands for the dose at which the effect has come halfway, by size or by number of responders. A lower ED50 goes with greater potency. The term Kb denotes the affinity of an antagonist, worked out from how it opposes an agonist.

T1 sequence (P25102 whole entry): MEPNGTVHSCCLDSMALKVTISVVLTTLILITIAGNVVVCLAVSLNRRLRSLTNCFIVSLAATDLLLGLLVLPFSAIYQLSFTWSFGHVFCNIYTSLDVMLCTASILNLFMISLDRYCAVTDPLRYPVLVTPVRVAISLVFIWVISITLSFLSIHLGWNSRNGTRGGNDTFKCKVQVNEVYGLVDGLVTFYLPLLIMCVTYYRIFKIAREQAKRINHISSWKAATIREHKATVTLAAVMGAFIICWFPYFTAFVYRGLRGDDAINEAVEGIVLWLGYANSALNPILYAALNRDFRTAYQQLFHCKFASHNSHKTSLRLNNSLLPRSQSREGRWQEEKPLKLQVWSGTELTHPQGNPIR

With `C#CCNC(=C[N+](=O)[O-])NCCSCc1ccc(CN(C)C)o1` [1-nitro-2-(2-propynylamino)-2-(2-[(5-dimethylaminomethyl-2-furyl)methylthio]ethylamino)ethylene], the “times the activity of cimetidine” value in the assay on H2 -receptor is 7.45 times.
In the case of `CNC(=C[N+](=O)[O-])NCCSCc1ccc(CN(C)C)o1` [ranitidine], in the assay with H2 receptor, the “H2 receptor antagonist activity compared with cimetidine” value was “greater H2 receptor antagonist activity than cimetidine”.
The molecule `C#CCNC(=C[N+](=O)[O-])NCCSCc1csc(CN(C)C)n1` [N-(2-propynyl)-N'-2-(2-dimethylaminomethyl-4-thiazolylmethylthio)ethyl 2-nitro-1,1-ethenediamine] came in with an ED50 with acid secretion (Canis lupus familiaris, 0.5 h, iv infusion over 30 minutes, histamine-stimulated gastric secretion) of 0.068 µmol/kg. Further, the “times smaller ED50 (iv) than that found for cimetidine” value with acid secretion (iv, relative to cimetidine) is reported as “over 7 times”. Further, on H2 -receptors, the Kb is 186 nM. Further, the “times higher affinity for the H2 -receptors than cimetidine” value on H2 -receptors (relative to cimetidine internal standard) is listed as “approximately 3.63 times”.
On to `C#CCNC(=NC#N)NCCSCc1csc(CN(C)C)n1` [N-2-propynyl-N'-2-(2-dimethylaminomethyl-4-thiazolylmethylthio)ethyl-N"-cyanoguanidine], for which the Kb on H2 -receptors was 1000 nM.
